Eight molecules from ChEMBL document CHEMBL1137632, “Galanin message-associated peptide suppresses growth and the budded-to-hyphal-form transition of Candida albicans” (2007) can be followed below.

Test [1] relates to Candida albicans. Kind of test: Antifungal activity against Candida albicans K2 at 24.3 uM after 16 hrs by BacTiter-Glow assay. It is filed as functional, organism-based.
Test [2] has as its system Candida albicans. Kind of test: Antifungal activity against Candida albicans SC5314 at 24.3 uM after 16 hrs by BacTiter-Glow assay. It counts as functional, organism-based.
Test [3] has as its system Candida albicans. Briefly: Antifungal activity against Candida albicans CBS 5983 at 24.3 uM after 16 hrs by BacTiter-Glow assay. It counts as functional, organism-based.
Test [4] relates to Candida albicans. Kind of test: Antifungal activity against Candida albicans clinical isolates at 24.3 uM after 16 hrs by BacTiter-Glow assay. It counts as functional, organism-based.
The subject of test [5] is Candida albicans. Briefly: Antifungal activity against Candida albicans K2 at 32 uM after 16 hrs by BacTiter-Glow assay. It is filed as functional, organism-based.
Test [6] deals with Candida albicans. Briefly: Antifungal activity against Candida albicans SC5314 at 32 uM after 16 hrs by BacTiter-Glow assay. It counts as functional, organism-based.
In test [7] the test system is Candida albicans. Kind of test: Antifungal activity against Candida albicans CBS 5983 at 32 uM after 16 hrs by BacTiter-Glow assay. It is filed as functional, organism-based.
The test system of test [8] is Candida albicans. Briefly: Antifungal activity against Candida albicans clinical isolates at 32 uM after 16 hrs by BacTiter-Glow assay. It counts as functional, organism-based.
Test [9] relates to Candida albicans. Briefly: Antifungal activity against Candida albicans K2 at 6.3 uM after 16 hrs by BacTiter-Glow assay. It counts as functional, organism-based.
The test system of test [10] is Candida albicans. Kind of test: Antifungal activity against Candida albicans SC5314 at 6.3 uM after 16 hrs by BacTiter-Glow assay. It is filed as functional, organism-based.
For test [11], the system named is Candida albicans. Briefly: Antifungal activity against Candida albicans CBS 5983 at 6.3 uM after 16 hrs by BacTiter-Glow assay. It is filed as functional, organism-based.
The test system of test [12] is Candida albicans. Kind of test: Antifungal activity against Candida albicans clinical isolates at 6.3 uM after 16 hrs by BacTiter-Glow assay. It is filed as functional, organism-based.
Test [13] concerns Candida albicans. Briefly: Antifungal activity against Candida albicans K2 at 4.1 uM after 16 hrs by BacTiter-Glow assay. It counts as functional, organism-based.
Test [14] relates to Candida albicans. Briefly: Antifungal activity against Candida albicans SC5314 at 4.1 uM after 16 hrs by BacTiter-Glow assay. It counts as functional, organism-based.
For test [15], the system named is Candida albicans. Briefly: Antifungal activity against Candida albicans CBS 5983 at 4.1 uM after 16 hrs by BacTiter-Glow assay. It is filed as functional, organism-based.
Test [16] relates to Candida albicans. Kind of test: Antifungal activity against Candida albicans clinical isolates at 4.1 uM after 16 hrs by BacTiter-Glow assay. It counts as functional, organism-based.
The subject of test [17] is Candida albicans. Briefly: Antifungal activity against Candida albicans K2 at 4 uM after 16 hrs by BacTiter-Glow assay. It counts as functional, organism-based.
Test [18] relates to Candida albicans. Kind of test: Antifungal activity against Candida albicans SC5314 at 4 uM after 16 hrs by BacTiter-Glow assay. It counts as functional, organism-based.
Test [19] has as its system Candida albicans. Kind of test: Antifungal activity against Candida albicans CBS 5983 at 4 uM after 16 hrs by BacTiter-Glow assay. It is filed as functional, organism-based.
For test [20], the system named is Candida albicans. Briefly: Antifungal activity against Candida albicans clinical isolates at 4 uM after 16 hrs by BacTiter-Glow assay. It is filed as functional, organism-based.
Test [21] concerns Candida albicans. Briefly: Antifungal activity against Candida albicans SC5314 assessed as inhibition of fungal transformation from budded-to-hyphal-form at 4 uM after 24 hrs by microscopy. It counts as functional, organism-based.
Test [22] relates to Candida albicans. Briefly: Antifungal activity against Candida albicans SC5314 assessed as inhibition of fungal transformation from budded-to-hyphal-form at 2 uM after 24 hrs by microscopy. It is filed as functional, organism-based.
The subject of test [23] is Candida albicans. Kind of test: Antifungal activity against Candida albicans SC5314 assessed as inhibition of fungal transformation from budded-to-hyphal-form at 1 uM after 24 hrs by microscopy. It is filed as functional, organism-based.
In test [24] the test system is Candida albicans. Kind of test: Antifungal activity against Candida albicans K2 at 4.15 uM after 16 hrs by BacTiter-Glow assay relative to untreated control. It counts as functional.
Test [25] concerns Candida albicans. Briefly: Antifungal activity against Candida albicans SC5314 at 4.15 uM after 16 hrs by BacTiter-Glow assay relative to untreated control. It counts as functional.
The test system of test [26] is Candida albicans. Kind of test: Antifungal activity against Candida albicans CBS 5983 at 4.15 uM after 16 hrs by BacTiter-Glow assay relative to untreated control. It counts as functional.
The test system of test [27] is Candida albicans. Briefly: Antifungal activity against Candida albicans clinical isolates at 4.15 uM after 16 hrs by BacTiter-Glow assay relative to untreated control. It is filed as functional.
Test [28] relates to Candida albicans. Briefly: Antifungal activity against Candida albicans K2 at 4.3 uM after 16 hrs by BacTiter-Glow assay relative to untreated control. The note with it: pooled result: one value given for 4 cell lines, strains, targets or settings. It is filed as functional.

Calls of active or inactive are those of the source. No cut-off for these calls is given here.

Consider H-PENNIMRTIIEFLSFLHLKEAGAL-OH, for which the outcome in the test on Candida albicans [1], with Candida albicans [2], with Candida albicans [3] and in the test with Candida albicans [4] was inactive.

On to `OC(Cn1cncn1)(Cn1cncn1)c1ccc(F)cc1F`, for which the outcome in the test with Candida albicans [5], in the test on Candida albicans [6], in the test on Candida albicans [7] and in the test with Candida albicans [8] was Active.

`CC[C@H](C)[C@H](NC(=O)[C@H](C)NC(=O)[C@H](Cc1c[nH]cn1)NC(=O)[C@@H]1CCCN1C(=O)CNC(=O)[C@H](CC(C)C)NC(=O)[C@H](CC(C)C)NC(=O)[C@H](Cc1ccc(O)cc1)NC(=O)CNC(=O)[C@H](C)NC(=O)[C@H](CO)NC(=O)[C@H](CC(N)=O)NC(=O)[C@H](CC(C)C)NC(=O)[C@@H](NC(=O)[C@H](Cc1c[nH]c2ccccc12)NC(=O)CN)[C@@H](C)O)C(=O)N[C@@H](CC(=O)O)C(=O)N[C@@H](CC(N)=O)C(=O)N[C@@H](Cc1c[nH]cn1)C(=O)N[C@@H](CCCNC(=N)N)C(=O)N[C@@H](CO)C(=O)N[C@@H](Cc1ccccc1)C(=O)N[C@@H](Cc1c[nH]cn1)C(=O)N[C@@H](CC(=O)O)C(=O)N[C@@H](CCCCN)C(=O)N[C@@H](Cc1ccc(O)cc1)C(=O)NCC(=O)N[C@@H](CC(C)C)C(=O)N[C@@H](C)C(N)=O`: the outcome with Candida albicans [9], in the test with Candida albicans [10], with Candida albicans [11] and with Candida albicans [12] was inactive.

H-SIPENNIMRTIIEFLSFLHLKEAGAL-OH: the outcome with Candida albicans [13], in the test on Candida albicans [14], with Candida albicans [15], with Candida albicans [16], with Candida albicans [17] and in the test with Candida albicans [18] was Active. In addition, the result in the test with Candida albicans [19], in the test with Candida albicans [20], in the test with Candida albicans [21] and with Candida albicans [22] was Active. For the same molecule, the result in the test on Candida albicans [23] was inactive.

In the case of H-LQSEDKAIRTIMEFLAFLHLKEAGAL-OH, the result with Candida albicans [13], with Candida albicans [14], in the test on Candida albicans [15], with Candida albicans [16], in the test on Candida albicans [17] and with Candida albicans [18] was Active. Further, the result in the test on Candida albicans [19], in the test with Candida albicans [20] and in the test on Candida albicans [21] was Active.

Regarding `CC[C@H](C)[C@H](NC(=O)[C@H](C)NC(=O)CNC(=O)[C@H](C)NC(=O)[C@H](CCC(=O)O)NC(=O)[C@H](CCCCN)NC(=O)[C@H](CC(C)C)NC(=O)[C@H](Cc1cnc[nH]1)NC(=O)[C@H](CC(C)C)NC(=O)[C@H](Cc1ccccc1)NC(=O)[C@H](CO)NC(=O)[C@H](CC(C)C)NC(=O)[C@H](Cc1ccccc1)NC(=O)[C@H](CCC(=O)O)NC(=O)[C@@H](NC(=O)[C@@H](NC(=O)[C@@H](NC(=O)[C@H](CCCNC(=N)N)NC(=O)[C@H](CCSC)NC(=O)[C@@H](NC(=O)[C@H](CC(N)=O)NC(=O)[C@H](CC(N)=O)NC(=O)[C@H](CCC(=O)O)NC(=O)[C@@H]1CCCN1C(=O)[C@@H](NC(=O)[C@H](CO)NC(=O)[C@H](CCCNC(=N)N)NC(=O)[C@H](CC(=O)O)NC(=O)[C@H](Cc1ccccc1)NC(=O)[C@H](CO)NC(=O)CNC(=O)[C@@H]1CCCN1C(=O)[C@H](CCCCN)NC(=O)[C@H](CCSC)NC(=O)[C@H](CC(=O)O)NC(=O)[C@H](CC(=O)O)NC(=O)[C@H](CCC(=O)O)NC(=O)[C@@H]1CCCN1C(=O)[C@H](CCCNC(=N)N)NC(=O)[C@H](CC(C)C)NC(=O)[C@@H](N)CCC(=O)O)[C@@H](C)CC)[C@@H](C)CC)[C@H](C)O)[C@@H](C)CC)[C@@H](C)CC)C(=O)O`, the outcome in the test on Candida albicans [21] and in the test on Candida albicans [22] was Active. Besides, the outcome with Candida albicans [23] was inactive.

With “H-GIGKFLHSAGKFGKAFVGEIMKS-OH [MAGAININ I]”, the Activity in the test on Candida albicans [24], in the test with Candida albicans [25], in the test on Candida albicans [26] and in the test on Candida albicans [27] was more than 90% each time.

In the test on Candida albicans [28], “H-ELRPEDDMKPGSFDRSIPENNIMRTIIEFLSFLHLKEAGAL-OH” showed an Activity of 48.7%.
